A short description of series [1]: Urinary excretion up to 25 h after start of copanlisib infusion. Conditions: 25 h urine collection interval; expansion cohort. It counts as in vivo, human.
A short description of series [2]: Plasma pharmacokinetics on cycle 1, day 1. It counts as in vivo, human.
Series [3] deals with patients with advanced malignancies. Nature of the series: Dose escalation. It is filed as in vivo, human.
Another series deals with PIK3CA-mutated cells. The conditions noted are these: preclinical studies; ref Liu et al, 2013; cited from earlier work.
Series [4] concerns patients with advanced malignancies. Description: Adverse events. It counts as in vivo, human.
Series [5] deals with multidrug and toxin extrusion protein 2K (MATE2-K). Conditions: in vitro; no reference given; cited from earlier work.
Series [6] has as its system advanced or refractory solid tumours. Nature of the series: Tumour response by RECIST version 1.1. It counts as in vivo, human.
Series [7] has as its system class I PI3K (PI3K-δ and PI3K-α isoforms). The conditions noted are these: pan-class I PI3K inhibitor; ref Liu et al, 2013; Haike et al, 2014; cited from earlier work.
Series [8] concerns patients with chronic lymphocytic leukaemia, small lymphocytic lymphoma and indolent non-Hodgkin’s lymphomas. Conditions: ref US Food and Drug Administration, 2016; cited from earlier work.

“Also recorded” adds a separate entry of the source.

In the case of `COc1c(OCCCN2CCOCC2=O)ccc2c3n(c(=NC(=O)c4cnc(N)nc4)nc12)CCN3` [M-1], the “amount excreted into urine, % of dose” value in series [1] is reported as around 0.9%. For the same compound, the “median tmax of M-1, range across cohorts” value in series [2] (copanlisib 0.8 mg kg^−1, cycle 1, day 1) was in the range of 2 to 4 h. Further, in [2] (in vivo), the “effect of co-administration of CisGem on plasma exposure (Cmax and AUC(0–25))” value is listed as “no influence”; the “estimated geometric mean terminal half-life of M-1 versus copanlisib” value is “comparable with that of copanlisib”.
For `COc1c(OCCCN2CCOCC2)ccc2c1N=C(NC(=O)c1cnc(N)nc1)N1CCN=C21` [copanlisib], the “RP2D of copanlisib in combination with CisGem” value in series [3] (cisplatin 25 mg m^−2 + gemcitabine 1000 mg m^−2, days 1 and 8 of a 21-day cycle) stood at 0.8 mg/kg. Moreover, the “RP2D of copanlisib in combination with gemcitabine” value in [3] (gemcitabine 1000 mg m^−2, days 1, 8 and 15 of a 28-day cycle) is 0.8 mg/kg. The “anti-tumour activity in PIK3CA-mutated cells” value in the series on PIK3CA-mutated cells is reported as “anti-tumour activity”. For the same compound, the “amount excreted into urine, % of dose” value in series [1] is “about 4.9%”. In addition, in series [4] (all 50 patients), the “TEAE any grade: decreased platelet count” value worked out at 80%, the “TEAE any grade: fatigue” value is on record as 76%, the “TEAE any grade: hyperglycaemia” value amounted to 80% and the “TEAE any grade: nausea” value came to 86%. In [4] (all 50 patients), the “copanlisib-related TEAE: anaemia” value is 42%, the “copanlisib-related TEAE: anorexia” value came out at 56%, the “copanlisib-related TEAE: decreased neutrophil count” value stood at 62% and the “copanlisib-related TEAE: decreased platelet count” value was found to be 58%. Besides, in series [4] (all 50 patients), the “copanlisib-related TEAE: fatigue” value worked out at 66%, the “copanlisib-related TEAE: hyperglycaemia” value stood at 76%, the “copanlisib-related TEAE: hypertension” value stood at 46% and the “copanlisib-related TEAE: nausea” value turned out to be 74%. In series [4] (all 50 patients), the “copanlisib-related TEAE: vomiting” value came to 36%, the “deaths considered related to study treatment” value is “No deaths”, the “grade ⩾3 TEAE: decreased neutrophil count” value is recorded as 62% and the “grade ⩾3 TEAE: decreased platelet count” value turned out to be 38%. In addition, in series [4] (all 50 patients), the “grade ⩾3 TEAE: fatigue” value is given as 22%, the “grade ⩾3 TEAE: hyperglycaemia” value is 24%, the “grade ⩾3 TEAE: hypertension” value is reported as 42% and the “grade ⩾3 copanlisib-related AE: decreased neutrophil count” value is 48%. In series [4] (all 50 patients), the “grade ⩾3 copanlisib-related AE: decreased platelet count” value turned out to be 28%, the “grade ⩾3 copanlisib-related AE: hypertension” value came out at 38% and the “patients who received insulin as remedial drug therapy” value is 14 patients. Moreover, in series [4] (all 50 patients, 26 patients), the “dose modification because of copanlisib-related TEAEs” value is reported as 52% and the “serious AE” value turned out to be 52%. Also, the “dose modifications (interruption or dose reduction) for copanlisib, gemcitabine or cisplatin due to TEAEs” value in series [4] (all 50 patients, 45 patients) worked out at 90%. The “at least one serious copanlisib-related AE” value in series [4] (all 50 patients, eleven patients) is 22%. In addition, the “serious AE: abdominal pain” value in series [4] (all 50 patients, four patients) was found to be 8%. For the same compound, in series [4] (all 50 patients, nine patients), the “permanently discontinued copanlisib because of TEAEs” value was found to be 18%. Moreover, the “serious copanlisib-related AE: grade 4 sinus tachycardia and grade 4 sepsis” value in series [4] (all 50 patients, one patient) is listed as 2%. In addition, the “serious AE: lung infection” value in series [4] (all 50 patients, six patients) was found to be 12%. Further, the “TEAE of grade 3 hyperglycaemia” value in series [4] (all 50 patients, ten patients) is 20%. In addition, in series [4] (all 50 patients, three patients), the “serious AE: dehydration” value is given as 6%. Also, in [4] (all 50 patients, two patients), the “TEAE of grade 4 hyperglycaemia” value came to 4% and the “grade 4 serious TEAE: sepsis” value was 4%. Moreover, in [4] (all patients), the “patients with infusion-related increases in plasma glucose and plasma insulin” value was around 80%. Moreover, the “signs of increased nephrotoxicity caused by intrarenal accumulation of cisplatin” value in series [4] (patients treated with copanlisib plus cisplatin, data not shown) is “no signs of increased nephrotoxicity”. For the same compound, the “inhibition of MATE2-K” value in series [5] is recorded as “strong inhibitor”. In [6] (4 out of 11 patients), the “response rate in patients with BTC who had not received prior anti-cancer therapy” value was determined as 36%. In addition, the “response in patients with BTC who had received prior CisGem or gemcitabine-containing chemotherapy” value in series [6] (12 patients) was “No response”. In addition, the “objective response rate overall” value in [6] (all 50 patients, all cohorts) is 10%. For the same compound, the “stable disease, patients” value in [6] (all 50 patients, 19 patients) is 38%. Besides, in series [6] (all 50 patients, four patients), the “partial response, patients” value is 8%. Besides, in [6] (all 50 patients, one patient), the “complete response, patients” value is recorded as 2%. Moreover, the “dose dependence of plasma exposure (Cmax and AUC)” value in series [2] (dose range 0.6–0.8 mg kg^−1) is listed as “nearly dose-proportional increase”. In [2] (human, plasma, intravenous), this compound displayed a half-life of 25 to 26 h. For the same compound, the “effect of co-administration of CisGem on plasma exposure (Cmax and AUC(0–25))” value in series [2] (in vivo) is “No substantial differences; also recorded: no influence”. In addition, the PI3K isoform selectivity result in series [7] is “predominant activity against PI3K-δ and PI3K-α isoforms”.
For `O=c1ccn([C@@H]2O[C@H](CO)[C@@H](O)C2(F)F)c(=O)[nH]1` [dFdU, 2’,2’-difluorodeoxyuridine], the “influence of co-administration with copanlisib on PK” value in series [2] (in vivo) is listed as “not influenced”.
With `Nc1ccn([C@@H]2O[C@H](CO)[C@@H](O)C2(F)F)c(=O)n1` [gemcitabine, reference compound], the “influence of co-administration with copanlisib on PK” value in series [2] (in vivo) was “not influenced”.
`CC[C@H](Nc1ncnc2[nH]cnc12)c1nc2cccc(F)c2c(=O)n1-c1ccccc1` [idelalisib]: the “rate of AEs in combination with other anti-cancer therapies” value in series [8] is “increased rate of AEs, including deaths”.

The values above are taken from publication PMC5830590 (British Journal of Cancer, 2018).
